Experimental data: PMC8518382, “Identification of a Bromodomain‐like Region in 15‐Lipoxygenase‐1 Explains Its Nuclear Localization” (Angewandte Chemie (International Ed. in English), 2021)

Experiments:
[1] = molecular target: T1, 5-LOX (Homo sapiens, UniProt P09917); experiment: Sandwich ELISA of Labelox B biotinylation in A549 cell lysate, 5-LOX capture; format: biochemical; conditions: HRP-streptavidin detection, read-out: EC50 of labeling
T1 construct: the endogenous LOXs were captured on an anti‐LOX antibody precoated 96‐well plate; endogenous in cells; host or cells: A549 cell lysate
T1 sequence (P09917 1-674): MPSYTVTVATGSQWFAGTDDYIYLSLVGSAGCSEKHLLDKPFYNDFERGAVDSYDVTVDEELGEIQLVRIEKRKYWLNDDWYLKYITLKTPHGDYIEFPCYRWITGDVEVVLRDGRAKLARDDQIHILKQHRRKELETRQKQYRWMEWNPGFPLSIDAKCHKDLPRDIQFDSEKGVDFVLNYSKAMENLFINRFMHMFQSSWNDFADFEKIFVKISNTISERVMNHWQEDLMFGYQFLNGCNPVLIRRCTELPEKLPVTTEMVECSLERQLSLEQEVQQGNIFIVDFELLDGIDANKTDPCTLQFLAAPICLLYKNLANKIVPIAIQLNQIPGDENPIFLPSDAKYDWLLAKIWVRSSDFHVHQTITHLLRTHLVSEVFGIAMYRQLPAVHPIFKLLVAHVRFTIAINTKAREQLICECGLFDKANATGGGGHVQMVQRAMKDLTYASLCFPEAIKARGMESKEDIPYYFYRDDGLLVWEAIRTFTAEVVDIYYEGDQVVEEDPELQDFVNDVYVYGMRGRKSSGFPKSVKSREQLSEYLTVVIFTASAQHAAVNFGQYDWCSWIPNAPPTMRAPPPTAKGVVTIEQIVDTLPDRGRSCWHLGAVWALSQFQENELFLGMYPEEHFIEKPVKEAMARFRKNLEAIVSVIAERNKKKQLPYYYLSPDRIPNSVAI
Method: (§1) Labelox B efficiently labels endogenous LOXs. Lipoxygenase labeling by Labelox B was investigated using cell‐based assays. As a first step, labeling efficiency was estimated in intact RAW 264.7 macrophage cells that were treated with Labelox B in concentrations ranging between 1 μM and 100 μM with incubation times between 0.5 h and 6 h. […] As a next step, a sandwich ELISA assay was established in order to find proof that probe Labelox B is indeed labeling proteins with lipoxygenase enzyme activity. Towards this aim, A549 cell lysates were treated with sub‐micromolar to micromolar concentrations of Labelox B. Subsequently, the endogenous LOXs were captured on an anti‐LOX antibody precoated 96‐well plate followed by detection of Labelox B mediated biotinylation using HRP‐conjugated streptavidin. […] Furthermore, probe Labelox B enabled visualization of localized LOX activity in living cells (Figure 2 c). […] The fluorescence intensity increased with increasing doses of Labelox B and labeling was observed throughout the cells in the cytoplasm and the nucleus of A549.
(§2) Figure 2 Labelox B labels endogenous LOXs in a dose‐ and time‐dependent manner. a, b) Western blot analysis of Labelox B labeled LOXs in intact RAW 264.7 for indicated doses and time points. […] The pictures were captured by a Leica DM4000b fluorescence microscope.

[2] = molecular target: T2, 15-LOX-2 (Homo sapiens, UniProt O15296); experiment: Sandwich ELISA of Labelox B biotinylation in A549 cell lysate, 15-LOX-2 capture; format: biochemical; conditions: HRP-streptavidin detection, read-out: EC50 of labeling
T2 construct: endogenous in cells; host or cells: A549 cell lysate
T2 sequence (O15296 1-676): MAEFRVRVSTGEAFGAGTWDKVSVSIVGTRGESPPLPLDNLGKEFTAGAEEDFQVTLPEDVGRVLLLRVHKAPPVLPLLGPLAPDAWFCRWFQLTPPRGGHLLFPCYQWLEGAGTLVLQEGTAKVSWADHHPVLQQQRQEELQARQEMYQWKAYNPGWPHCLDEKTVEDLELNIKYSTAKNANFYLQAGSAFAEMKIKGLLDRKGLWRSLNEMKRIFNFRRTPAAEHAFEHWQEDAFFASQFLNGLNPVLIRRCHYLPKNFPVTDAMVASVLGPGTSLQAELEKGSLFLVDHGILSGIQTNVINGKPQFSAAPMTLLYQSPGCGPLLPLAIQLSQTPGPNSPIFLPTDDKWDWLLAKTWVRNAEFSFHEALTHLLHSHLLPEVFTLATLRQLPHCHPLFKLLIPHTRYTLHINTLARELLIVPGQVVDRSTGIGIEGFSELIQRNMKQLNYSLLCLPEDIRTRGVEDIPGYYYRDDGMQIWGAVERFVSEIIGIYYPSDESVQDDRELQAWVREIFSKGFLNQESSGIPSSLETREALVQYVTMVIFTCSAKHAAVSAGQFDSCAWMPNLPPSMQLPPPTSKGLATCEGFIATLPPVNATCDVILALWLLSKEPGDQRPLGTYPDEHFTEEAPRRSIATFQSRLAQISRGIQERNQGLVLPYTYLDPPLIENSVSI
Method: as §1, §2

Work on `CCCCCC#CCC#CCOC(=O)CCCC[C@@H]1SC[C@@H]2NC(=O)N[C@@H]21` [Labelox B (3)] yielded an EC50 [1] of ~3.5 µM and an EC50 [2] of ~3.5 µM.
